Where two headings read alike, the source gives them in different places. No end group written: not given here.
How the values were obtained:
[1] = tested on: Bacillus subtilis (DSM 347); type: cell-based
Protocol: (§1) The antimicrobial activity of the KL peptides was determined with a MIC assay. Peptide activity was tested against Gram-negative Escherichia coli (DSM 1116) and Enterobacter helveticus (DSM 18390) and against Gram-positive Bacillus subtilis (DSM 347) and Staphylococcus xylosus (DSM 20287) as previously reported. Our standard MIC assay was modified to avoid unnecessary exposure of peptides to the phosphate-containing growth medium, which was previously found to affect the results due to phosphate-induced aggregation of peptides. Details can be found in the Supplementary Materials.
(§2) The activity of KL and LK peptides against bacteria was examined using a MIC assay. […] We have previously shown that KL peptides, especially the longer ones, aggregate vigorously in the presence of phosphate ions. […] Therefore, here we used a modified MIC assay that was developed in our previous study, as described in the Methods section. In this approach, a two-fold dilution series was first prepared with peptides dissolved in water, and only thereafter were the bacteria in the medium added so that the peptides were simultaneously exposed to bacteria and phosphate-containing medium.
(§3) 1.3 MIC (minimum inhibitory concentration) assay
(§4) Antimicrobial activity was measured by a minimal inhibitory concentration (MIC) assay, carried out with Gram-positive Bacillus subtilis (DSM 347) and Staphylococcus xylosus (DSM 20287) and with Gram-negative Escherichia coli (DSM 1116) and Enterobacter helvet-icus (DSM 18390). Bacteria were grown in Müller-Hinton medium at 37°C overnight. Bac-terial solutions with OD550 = 0.2 was further diluted 1:100 for Gram-positive and 1:1000 for Gram-negative bacteria to get a concentration of […] colony forming units (CFU)/mL. Mi-crotiter plates (96 wells of 100 μL) were filled peptide solution to obtain serial 2-fold dilu-tion series of peptides. 50 µL of pure water was first added to each well. To the first well 50 µL peptide solution was added, after mixing 50 µL of this was transferred to the second well and so on. After all plates were prepared, 50 µL bacterial solution in double-concen-tration MHM was added to the wells (except for the final row of each plate) to give a final concentration of 5 × 10^5 CFU/mL in the wells. Thus, peptides got in contact with phosphate and bacteria simultaneously. […]
(§5) gregate stronlgy in contact with the phosphate containing growth medium. The two final rows of each plate remained without peptide, so that the penultimate data point served as the positive co ntrol (no peptide), and the final one as the negative control (not inoculated). The plates were incubated at 37°C for 20 h, and cell viability was probed by addition of 20 µL 0.2 mg/mL resazurin and incubation at 37°C for 2 h. The MIC value was determined visually as the lowest peptide concentration inhibiting bacterial growth. […]
(§6) Unencapsulated dye was removed by gel filtration using spin columns filled with Sephacryl 100-HR (Sigma-Aldrich, Taufkirchen, Germany), and equilibrated with an elu-tion buffer (150 mM NaCl, 10 mM HEPES, pH 7.5), which balances the internal vesicle

[2] = tested on: Enterobacter helveticus (DSM 18390); type: cell-based
Protocol: as §1, §2, §3, §4, §5, §6

[3] = tested on: Escherichia coli (DSM 1116); type: cell-based
Protocol: as §1, §2, §3, §4, §5, §6

[4] = tested on: Staphylococcus xylosus (DSM 20287); type: cell-based
Protocol: as §1, §2, §3, §4, §5, §6

[5] = tested on: erythrocytes; test: Hemolysis assay; type: cell-based
[6] = tested on: erythrocytes; details: cited from earlier work
Description: (§7) Many natural and man-made AMPs are cationic and fold into simple amphiphilic α-helices. Much fewer examples exist of another fundamental type of secondary structure, namely amphiphilic β-strands. A classic model sequence, [KIGAKI]3-NH2, had been designed from alternating polar and hydrophobic side chains. Recently, we presented an even simpler group of so-called KL peptides, consisting of the alternating (lysine-leucine) dipeptide repeat: [KL]n-NH2. Recently, four KLx peptides of different lengths (x = number of residues, x = 2n) with 6–18 amino acids were compared in terms of ...

[7] = tested on: four bacterial strains; test: MIC assay, overall statement for the four strains; type: cell-based, E. coli, E. helveticus, B. subtilis, S. xylosus; details: modified MIC assay
Protocol: as §1
The activity of KL and LK peptides against bacteria was examined using a MIC assay. […] We have previously shown that KL peptides, especially the longer ones, aggregate vigorously in the presence of phosphate ions. […] Therefore, here we used a modified MIC assay that was developed in our previous study, as described in the Methods section. […]
Antimicrobial activity was measured by a minimal inhibitory concentration (MIC) assay, carried out with Gram-positive Bacillus subtilis (DSM 347) and Staphylococcus xylosus (DSM 20287) and with Gram-negative Escherichia coli (DSM 1116) and Enterobacter helvet-icus (DSM 18390). […]
gregate stronlgy in contact with the phosphate containing growth medium. […] The MIC value was determined visually as the lowest peptide concentration inhibiting bacterial growth. […]

[8] = tested on: four bacterial strains; details: earlier study; ref [15]; cited from earlier work
Description: as §7

[9] = Gram-positive, modified MIC: 2-fold dilution series of peptide in water, then bacteria in double-concentration Müller-Hinton medium, 5 × 10^5 CFU/mL, 37°C 20 h, resazurin, visual
[10] = Gram-negative, modified MIC: 2-fold dilution series of peptide in water, then bacteria in double-concentration Müller-Hinton medium, 5 × 10^5 CFU/mL, 37°C 20 h, resazurin, visual

| Substance | MIC B. subtilis ([1]; DSM 347, 20 h) [µg/mL] | MIC E. helveticus ([2]; DSM 18390, 20 h) [µg/mL] | MIC E. coli ([3]; DSM 1116, 20 h) [µg/mL] | MIC S. xylosus ([4]; DSM 20287, 20 h) [µg/mL] | Hemolysis HC50 (concentration of peptide giving 50% hemolysis) ([5]; 20 h) [µg/mL] | other results |
| --- | --- | --- | --- | --- | --- | --- |
| KLKLKLKLKLKLKLKLKLKLKL-NH2 [KL22] | 32 | 32 | 32 | 16 | <1 | – |
| KLKLKLKLKLKLKLKLKLKLKLKLKL-NH2 [KL26] | – | – | – | – | – | MIC B. subtilis [1, 9]: 32 µg/mL; MIC E. helveticus [2, 10]: 16 µg/mL; MIC E. coli [3, 10]: 64 µg/mL; MIC S. xylosus [4, 9]: 16 µg/mL; Hemolysis HC50 (concentration of peptide giving 50% hemolysis) ([5]; interpolated from concentration-dependent curves, washed erythrocytes of healthy donors, 37°C 30 min, absorbance 540 nm, 100% = 1% Triton X-100): <1 µg/mL; Hemolysis ([5]; peptide 1 µg/mL, erythrocytes of healthy donors, 37°C 30 min, A540, relative to Triton-X 100%, average of three absorbance measurements): 52%; Hemolysis ([5]; peptide 2 µg/mL, erythrocytes of healthy donors, 37°C 30 min, A540, relative to Triton-X 100%, average of three absorbance measurements): 71%; Hemolysis ([5]; peptide 4 µg/mL, erythrocytes of healthy donors, 37°C 30 min, A540, relative to Triton-X 100%, average of three absorbance measurements): 72%; Hemolysis ([5]; peptide 8 µg/mL, erythrocytes of healthy donors, 37°C 30 min, A540, relative to Triton-X 100%, average of three absorbance measurements): 72%; Hemolysis ([5]; peptide 16 µg/mL, erythrocytes of healthy donors, 37°C 30 min, A540, relative to Triton-X 100%, average of three absorbance measurements): 56%; Hemolysis ([5]; peptide 32 µg/mL, erythrocytes of healthy donors, 37°C 30 min, A540, relative to Triton-X 100%, average of three absorbance measurements): 50%; Hemolysis ([5]; peptide 64 µg/mL, erythrocytes of healthy donors, 37°C 30 min, A540, relative to Triton-X 100%, average of three absorbance measurements): 47%; Hemolysis ([5]; peptide 128 µg/mL, erythrocytes of healthy donors, 37°C 30 min, A540, relative to Triton-X 100%, average of three absorbance measurements): 42%; Hemolysis ([5]; peptide 256 µg/mL, erythrocytes of healthy donors, 37°C 30 min, A540, relative to Triton-X 100%, average of three absorbance measurements): 39% |
| KLKLKL-NH2 [KL6] | >256 | 128 | >256 | 256 | >256 | Hemolytic activity (in words) [5]: very low hemolytic activity |
| KLKLKLKLKLKL-NH2 [KL12] | 2 | 2 | 2 | 2 | 8 | – |
| KLKLKLKLK-NH2 [KL9] | 16 | 8 | 32 | 2 | >256 | Hemolysis ([5]; 20 h, 1 µg/mL): 5%; Hemolysis ([5]; 20 h, 2 µg/mL): 6%; Hemolysis ([5]; 20 h, 4 µg/mL): 8%; Hemolysis ([5]; 20 h, 8 µg/mL): 9%; Hemolysis ([5]; 20 h, 16 µg/mL): 9%; Hemolysis ([5]; 20 h, 32 µg/mL): 11%; Hemolysis ([5]; 20 h, 64 µg/mL): 14%; Hemolysis ([5]; 20 h, 128 µg/mL): 18%; Hemolysis ([5]; 20 h, 256 µg/mL): 20%; Hemolytic activity (in words) ([5]; erythrocytes, 37°C 30 min): very low hemolytic activity |
| KLKLKLKLKLK-NH2 [KL11] | 4 | 2 | 4 | 1 | >256 | Hemolytic activity (in words) [5]: very low hemolytic activity |
| KLKLKLKLKLKLKL-NH2 [KL14] | 4 | 4 | 8 | 4 | 1 | Hemolytic activity (in words) [6]: highly hemolytic |
| KLKLKLKLKLKLKLK-NH2 [KL15] | 4 | 2 | 8 | 2 | 2 | – |
| KLKLKLKLKLKLKLKLKLKL-NH2 [KL20] | 32 | 32 | 32 | 16 | <1 | – |
| LKLKLKLKLKLKLKL-NH2 [LK15] | 16 | 16 | 64 | 16 | <1 | – |
| KLKLKLKLKLKLKLKLKLKLKLKL-NH2 [KL24] | 32 | 16 | 32 | 8 | <1 | – |
| LKLKLKLKLK-NH2 [LK10] | 4 | 2 | 8 | 1 | 256 | – |
| KLKLKLKLKLKLKLKLKL-NH2 [KL18] | 32 | 16 | 32 | 8 | 1 | Hemolytic activity (in words) [6]: highly hemolytic |
| KLKLKLKLKLKLK-NH2 [KL13] | 2 | 1 | 2 | 1 | 9 | – |
| LKLKLKLKLKL-NH2 [LK11] | 2 | 1 | 2 | 1 | 3 | – |
| LKLKLKLKL-NH2 [LK9] | 4 | 4 | 16 | 2 | 145 | – |
| KLKLKLKLKLKLKLKL-NH2 [KL16] | 16 | 8 | 32 | 8 | 2 | – |
| LKLKLKLKLKLKL-NH2 [LK13] | 8 | 4 | 8 | 4 | 2 | – |
| KLKLKLKL-NH2 [KL8] | 16 | 16 | 64 | 8 | >256 | Hemolytic activity (in words) [5]: very low hemolytic activity |
| KLKLKLKLKL-NH2 [KL10] | 2 | 2 | 4 | 2 | 47 | Hemolytic activity (in words) [5]: considerably more hemolytic than LK10; Antimicrobial activity (in words) [7]: highest activity; Antimicrobial effect (in words) [8]: better antimicrobial effect than KL6, KL14 or KL18 |
